# Assay results published in PMC12731528, “High‐Affinity Peptide‐Drug Conjugate Ligands for the TRIM24 PHD and Bromodomain” (Chemistry (Weinheim an Der Bergstrasse, Germany), 2025).
# “And” between values parts separate entries of the source, which are not always exact repeats. Equal entries are not always repeated. Where two headings read alike, the source gives them in different places.
# T1: His6-TRIM24 (PHD-BRD) (Homo sapiens, UniProt O15164)
# T1 sequence (O15164 825-1007): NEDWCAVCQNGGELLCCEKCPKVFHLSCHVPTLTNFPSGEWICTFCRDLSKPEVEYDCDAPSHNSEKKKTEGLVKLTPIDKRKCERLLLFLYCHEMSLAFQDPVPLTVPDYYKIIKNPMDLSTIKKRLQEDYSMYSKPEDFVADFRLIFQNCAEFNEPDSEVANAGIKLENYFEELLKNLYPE
# T2: BRPF1 (BRD) (Homo sapiens, UniProt P55201)
# T2 sequence (P55201 628-732 limits assumed): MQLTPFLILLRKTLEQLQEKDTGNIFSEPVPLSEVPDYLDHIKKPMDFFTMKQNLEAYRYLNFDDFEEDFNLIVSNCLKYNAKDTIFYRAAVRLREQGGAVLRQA
# T3: TRIM24 (PHD‐BRD) (Homo sapiens, UniProt O15164)
# T3 sequence (O15164 826-1004 limits assumed): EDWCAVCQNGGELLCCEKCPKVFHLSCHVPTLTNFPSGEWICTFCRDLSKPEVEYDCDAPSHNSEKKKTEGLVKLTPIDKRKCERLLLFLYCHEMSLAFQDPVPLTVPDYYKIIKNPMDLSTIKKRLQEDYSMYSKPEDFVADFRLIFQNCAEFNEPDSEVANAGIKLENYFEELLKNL
# T4: BRPF1 (BRD)
# T4 chain: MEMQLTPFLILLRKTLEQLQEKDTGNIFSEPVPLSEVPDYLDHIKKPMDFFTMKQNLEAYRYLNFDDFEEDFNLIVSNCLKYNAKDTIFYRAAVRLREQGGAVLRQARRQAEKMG
# Assays:
# TRIM33α = test system: TRIM33α; design: method as in PMID 36098557, PMID 26061247; conditions: cited from earlier work
# TRIM33β = test system: TRIM33β; design: method as in PMID 36098557, PMID 26061247; conditions: cited from earlier work
# His6-TRIM24 (PHD-BRD) [1] = target: T1, His6-TRIM24 (PHD-BRD); assay: AlphaScreen competition assay, displacement of biotinylated H3(1–27)K18Ac (B2); design: N825–E1007; made in house; host or cells: Escherichia coli BL21-Gold (DE3), plasmid pNIC28-Bsa4; conditions: inhibition of TRIM24-H3K18Ac (B2) binding; mean of triplicate ± SEM
# His6-TRIM24 (PHD-BRD) [2] = target: T1, His6-TRIM24 (PHD-BRD); assay: AlphaScreen competition assay, displacement of biotinylated H3(1–27)K9Me3K18Ac (B3); type: binding; design: N825–E1007; made in house; host or cells: Escherichia coli BL21-Gold (DE3), plasmid pNIC28-Bsa4; conditions: for IC50: AlphaScreen® IC50 (TRIM24 PHD-BRD), inhibition of TRIM24-H3K9Me3K18Ac (B3) binding, mean of triplicate ± SEM; for AlphaScreen signal at plateau relative to baseline: competitor H3(1–27)K9Me3K18Ac
# BT-474 (ER+) = assay: MTT assay, BT-474; type: cell-based, human; conditions: ER+ breast cancer cell line, up to 10 μM, 16 h
# Protocol: (§1) (ER+) and CAL-51 (triple negative), treated with the indicated compound (10 µM). The data are represented as the mean of means for two biological repeats (n = 2), each consisting of three technical repeats. Error bars indicate the standard error of the mean. […]
# (§2) due to issues with procurement at the time of running the assay. […]
# (§3) indicated compound (10 µM). Compounds were added after seeding on day 0 only and counting was carried out each day for 6 days. Data are represented as the mean of triplicate data from one biological repeat. Error bars indicate the standard deviation. […]
# (§4) supplemented with 10% FBS (Merck Life Sciences U.K. Ltd., F7524). Unless otherwise stated, cells were cultured in a humidified incubator at 37 °C and 5% CO2. Cell lines were passaged by trypsinisation (Trypsin-EDTA solution 1×, Merck Life Sciences U.K. Ltd., T3924), and by diluting the cells into a culture flask at the desired density in complete media. Cell lines were […]
# (§5) Cells were seeded and allowed to adhere for 6 h in plastic clear-bottomed 96-well plates in a total volume of 200 μL/well complete medium.
# MCF-7 cells = assay: Proliferation and clonogenic assays, MCF-7; type: cell-based, human; conditions: MCF-7, 10 µM
# Protocol: as §1, §2, §3
# Error bars indicate the standard deviation.
# (§6) (1 picture or pasted object on this page, not shown here) […]
# as §4, §5
# CAL-51 cells = assay: Proliferation and clonogenic assays, CAL-51; type: cell-based, human; conditions: CAL-51, 10 µM
# Protocol: as §6, §4, §5
# CAL-51 (triple negative) = assay: MTT assay, CAL-51; type: cell-based, human; conditions: triple-negative breast cancer cell line, up to 10 μM, 16 h
# Protocol: as §1, §2, §3, §4, §5
# BRPF1 (BRD) [3] = target: T2, BRPF1 (BRD); assay: BROMOscan assay, BRPF1; conditions: mean of duplicate data ± 95% confidence interval
# TRIM24 (PHD‐BRD) = target: T3, TRIM24 (PHD‐BRD); assay: BROMOscan assay, TRIM24; type: binding
# Source text: The Hill Slope was set to −1.
# His6-TRIM24 (PHD-BRD) [4] = target: T1, His6-TRIM24 (PHD-BRD); assay: Surface plasmon resonance (SPR); type: binding; design: N825–E1007; made in house; host or cells: Escherichia coli BL21-Gold (DE3), plasmid pNIC28-Bsa4; conditions: 15 °C; for Kd: mean of means of triplicate ± SEM
# TRIM24 = conditions: ref Gechijian et al. 2018; cited from earlier work
# BRPF1 = conditions: ref Gechijian et al. 2018; cited from earlier work
# His6-TRIM24 (PHD-BRD) [5] = target: T1, His6-TRIM24 (PHD-BRD)
# His6-TRIM24 (PHD-BRD) [6] = target: His6-TRIM24 (PHD-BRD) (UniProt O15164); assay: other; AlphaScreen, competitor biotinylated H3K9Me3K18Ac (B3)
# BRPF1 (BRD) [7] = target: T4, BRPF1 (BRD); assay: BROMOscan; conditions: Synthetic nine-residue H3(1-9) peptide. Residue 9 (K10 in precursor numbering) is unnatural amino acid 42, a lysine analogue whose side-chain nitrogen is part of an isoindoline ring (parent written as Lys). C-terminal group is not stated in the text. Limits are inferred from H3(1-8) peptide 46 plus amino acid 42. limits by convention from the usual BRPF1 bromodomain structural construct (covers B); modification not given
# BRPF1 (BRD) [8] = target: T4, BRPF1 (BRD); conditions: Synthetic nine-residue H3(1-9) peptide. Residue 9 (K10 in precursor numbering) is unnatural amino acid 42, a lysine analogue whose side-chain nitrogen is part of an isoindoline ring (parent written as Lys). C-terminal group is not stated in the text. Limits are inferred from H3(1-8) peptide 46 plus amino acid 42. limits by convention from the usual BRPF1 bromodomain structural construct (covers B); modification not given
molecule,measurement,setting,value
CCCOc1cc(OCCCCN(C)C)cc(Oc2cc3c(cc2NS(=O)(=O)c2ccc(OC)c(OC)c2)n(C)c(=O)n3C)c1 [IACS9571],binding to TRIM33α,TRIM33α,does not bind
same,binding to TRIM33β,TRIM33β,does not bind
CCCOc1cccc(Oc2cc3c(cc2NS(=O)(=O)c2cccc(C(=O)O)c2)n(C)c(=O)n3C)c1 [compound 28],IC50,His6-TRIM24 (PHD-BRD) [1],388 ± 46.6 nM
same,IC50,His6-TRIM24 (PHD-BRD) [2],> 100000 nM
same,AlphaScreen signal at plateau relative to baseline,His6-TRIM24 (PHD-BRD) [2],did not decrease to baseline
CCCOc1cccc(Oc2cc3c(cc2NS(=O)(=O)c2cccc(C(=O)NCCOCCOCCNC(C)=O)c2)n(C)c(=O)n3C)c1 [compound 32],IC50,His6-TRIM24 (PHD-BRD) [1],105 ± 5.3 nM
same,IC50,His6-TRIM24 (PHD-BRD) [2],484 nM
same,AlphaScreen signal at plateau relative to baseline,His6-TRIM24 (PHD-BRD) [2],did not decrease to baseline
CCCOc1cccc(Oc2cc3c(cc2NS(=O)(=O)c2cccc(C(=O)NCCOCCOCCOCCNC(C)=O)c2)n(C)c(=O)n3C)c1 [compound 33],IC50,His6-TRIM24 (PHD-BRD) [1],71 ± 4.1 nM
same,cytotoxic effects (MTT),BT-474 (ER+),did not show cytotoxic effects
same,IC50,His6-TRIM24 (PHD-BRD) [2],348 nM
same,AlphaScreen signal at plateau relative to baseline,His6-TRIM24 (PHD-BRD) [2],did not decrease to baseline
same,effect on breast cancer cell growth,MCF-7 cells,neither compound significantly affected
same,effect on breast cancer cell growth,CAL-51 cells,neither compound significantly affected
same,cytotoxic effects (MTT),CAL-51 (triple negative),did not show cytotoxic effects
CCCOc1cccc(Oc2cc3c(cc2NS(=O)(=O)c2cccc(C(=O)NCCOCCOCCOCCOCCNC(C)=O)c2)n(C)c(=O)n3C)c1 [compound 34],IC50,His6-TRIM24 (PHD-BRD) [1],94.2 ± 4.6 nM
same,Kd,BRPF1 (BRD) [3],2.15 ± 0.49 nM
same,IC50,His6-TRIM24 (PHD-BRD) [2],275 nM
same,AlphaScreen signal at plateau relative to baseline,His6-TRIM24 (PHD-BRD) [2],did not decrease to baseline
same,Kd,"TRIM24 (PHD‐BRD); BROMOscan TRIM24 PHD-BRD Kd, mean of duplicate data ± 95% confidence interval",2 ± 0.98 nM
same,Kd,"TRIM24 (PHD‐BRD); individual duplicate curves, read-out: BROMOscan TRIM24 Kd, single dose-response curve",2.5 nM and 1.5 nM
same,koff,His6-TRIM24 (PHD-BRD) [4]; SPR,0.061 s⁻¹
same,kon,His6-TRIM24 (PHD-BRD) [4]; SPR,6.1e+06 M⁻¹ s⁻¹
same,Kd,"His6-TRIM24 (PHD-BRD) [4]; binding saturation, read-out: SPR Kd – equilibrium",11 ± 2.3 nM
same,Kd,"His6-TRIM24 (PHD-BRD) [4]; multi-cycle kinetics, read-out: SPR Kd – kinetic",10 ± 7 nM
CCCOc1cccc(Oc2cc3c(cc2NS(=O)(=O)c2cccc(C(=O)NCCOCCOCCOCC(=O)N[C@H](C(=O)N4C[C@H](O)C[C@H]4C(=O)NCc4ccc(-c5scnc5C)cc4)C(C)(C)C)c2)n(C)c(=O)n3C)c1 [dTRIM24],Kd,TRIM24,42 nM
same,Kd,BRPF1,52 nM
C[C@H](N)C(=O)N[C@@H](CCCNC(=N)N)C(=O)N[C@H](C(=O)N[C@@H](CCCC[N+](C)(C)C)C(=O)N[C@@H](CCC(N)=O)C(=O)N[C@H](C(=O)N[C@@H](C)C(=O)N[C@@H](CCCNC(=N)N)C(=O)N[C@@H](CCCCN)C(=O)N[C@@H](CO)C(=O)N[C@H](C(=O)NCC(=O)NCC(=O)N[C@@H](CCCCN)C(=O)N[C@@H](C)C(=O)O)[C@@H](C)O)[C@@H](C)O)[C@@H](C)O [reference compound],IC50,His6-TRIM24 (PHD-BRD) [1],> 400000 nM
same,IC50,His6-TRIM24 (PHD-BRD) [2],> 400000 nM
same,IC50,"His6-TRIM24 (PHD-BRD) [5]; AlphaScreen® IC50, inhibition of TRIM24-H3K9Me3 (B1) binding by PDCs and controls, mean of triplicate ± SEM",> 400000 nM
same,IC50,"His6-TRIM24 (PHD-BRD) [5]; AlphaScreen® IC50, inhibition of TRIM24-H3K9Me3 (B1) binding, mean of triplicate data ± standard error of the mean",> 400000 nM
H3(1-27)K9Me3K18Ac,IC50,His6-TRIM24 (PHD-BRD) [6],242 nM
ARTKQTARK [TRIM24 PHD-binding peptide (56)],Kd,BRPF1 (BRD) [7],> 10000 nM
same,Kd,BRPF1 (BRD) [8],> 10000 nM
